Experimental data as given in PMC3678123 (Bioorganic & medicinal chemistry letters, 2013).
“Also recorded” adds a separate entry of the source.

Experiments:
[1] = molecular target: recombinant human DAAO (Homo sapiens, UniProt P14920); experiment: Inhibition of recombinant human DAAO; type: biochemical; conditions: qualitative statement
[2] = system: DAAO; conditions: cited from earlier work

Chain of recombinant human DAAO (P14920 whole entry): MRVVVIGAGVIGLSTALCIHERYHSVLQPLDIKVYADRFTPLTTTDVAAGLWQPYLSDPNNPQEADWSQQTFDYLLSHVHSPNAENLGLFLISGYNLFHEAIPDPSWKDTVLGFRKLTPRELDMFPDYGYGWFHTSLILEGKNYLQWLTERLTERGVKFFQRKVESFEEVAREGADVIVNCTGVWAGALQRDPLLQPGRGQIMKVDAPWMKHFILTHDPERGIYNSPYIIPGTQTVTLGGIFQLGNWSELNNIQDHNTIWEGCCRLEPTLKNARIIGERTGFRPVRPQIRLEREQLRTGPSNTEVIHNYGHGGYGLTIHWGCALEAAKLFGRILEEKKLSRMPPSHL

SMILES	DAAO inhibitory potency (in words) [1]	IC50 [2]
COc1coc(CO)cc1=O [6b]	complete loss of potency; also recorded: completely devoid of any inhibitory activity	
O=C(O)c1cc(CCc2ccccc2)[nH]n1 [5d]		< 1000 nM
O=c1cc(CCc2ccccc2)occ1O [compound 17, 5-hydroxy-2-phenethyl-4H-pyran-4-one]	slightly more potent than the ether counterpart 9c	
O=c1[nH]c2c(F)cc(F)cc2n1O [compound 3, 4,6-Difluoro-1-hydroxy-1Hbenzo[d]imidazol-2(3H)-one]		80 nM
O=C(O)c1cc[nH]n1 [5b, 1H-pyrazole-3-carboxylic acid]		< 100000 nM
Oc1noc2cc(Cl)ccc12 [compound 1, 6-chlorobenzo[d]isoxazol-3-ol]		188 nM
O=C(O)c1cc(CCc2ccccc2)c[nH]1 [5c]		< 1000 nM
CCOCc1cc(=O)c(O)co1 [9b]	significantly less potent than kojic acid	
O=c1ccn(CCc2ccccc2)cc1O [compound 19, 3-hydroxy-1-phenethyl-4(1H)-pyridinone]	no inhibitory activity	
O=c1cc(COCc2ccccc2)occ1O [9j]	dramatic loss of potency	
O=C(O)c1ccc[nH]1 [5a, pyrrole-2-carboxylic acid]		< 10000 nM
O=c1cc(COc2ccccc2)occ1O [9c]	potency comparable or superior to that of kojic acid	
O=c1cc(COC2CCCCO2)occ1O (stereo not drawn) [9k]	significantly less potent than kojic acid	
O=c1oc2ccccc2cc1O [2b, 3-hydroxychromen-2-one]		440 nM
COCc1cc(=O)c(O)co1 [9a]	significantly less potent than kojic acid	
